Experimental data from PMC7737538 (ACS Medicinal Chemistry Letters, 2020).

Key:
HCMV AD-169 strain = assay: HCMV antiviral assay in HEL fibroblasts, AD-169 strain; type: cell-based, human cytomegalovirus; conditions: strain not given
[1] = tested on: VZV TK+ strain (strain Oka); type: cell-based, varicella zoster virus; conditions: HEL fibroblasts; strain not given
human rhinovirus (HRV) = conditions: read-out: EC50 against human rhinovirus (HRV); in vitro; cited from earlier work
Vero cells = conditions: readout not given
[2] = tested on: SARS-CoV-2 (two clinical isolates); assay: SARS-CoV-2 antiviral assay in Vero cells, statements without strain; type: cell-based
in vitro = conditions: human

CO[C@]1(CO)O[C@@H](n2ccc(=O)[nH]c2=O)C(F)(F)[C@@H]1O [12a]
activity against HCMV (in words) (HCMV AD-169 strain): completely devoid of activity
activity against VZV (in words) [1]: completely devoid of activity

Nc1ccn([C@@H]2O[C@H](CO)[C@@H](O)C2(F)F)c(=O)n1 [gemcitabine, 2′-deoxy-2′,2′-difluorocytidine, reference compound]
EC50 (human rhinovirus (HRV)): 0.81 to 1.92 µM
cytotoxicity in Vero cells (in words) (Vero cells): high cytotoxicity

C[C@H](NP(=O)(OC[C@H]1O[C@@H](n2ccc(N)nc2=O)C(F)(F)[C@@H]1O)Oc1ccccc1)C(=O)OCc1ccccc1 (stereo partly drawn) [2c, Benzyl ((((2R,3R,5R)-5-(4-Amino-2-oxopyrimidin-1(2H)-yl)-4,4-difluoro-3-hydroxytetrahydrofuran-2-yl)methoxy)(phenoxy)phosphoryl)-L-alaninate]
antiviral activity against SARS-CoV-2 (in words) [2]: lack of activity

Nc1ccn([C@@H]2O[C@](F)(CO)[C@@H](O)C2(F)F)c(=O)n1 [1b]
antiviral activity against SARS-CoV-2 (in words) [2]: no selective antiviral activity

CO[C@]1(CO)O[C@@H](n2ccc(N)nc2=O)C(F)(F)[C@@H]1O [1a]
activity against HCMV (in words) (HCMV AD-169 strain): completely devoid of activity
antiviral activity against SARS-CoV-2 (in words) [2]: devoid of antiviral activity
activity against VZV (in words) [1]: completely devoid of activity
cytotoxicity in Vero cells (in words) (Vero cells): devoid of antiviral activity and cytotoxicity

C[C@H](NP(=O)(OC[C@@]1(F)O[C@@H](n2ccc(N)nc2=O)C(F)(F)[C@@H]1O)Oc1ccccc1)C(=O)OCc1ccccc1 (some centres unmarked) [2b]
antiviral activity against SARS-CoV-2 (in words) [2]: minimal antiviral activity

O=c1ccn([C@@H]2O[C@](F)(CO)[C@@H](O)C2(F)F)c(=O)[nH]1 [12b]
activity against HCMV (in words) (HCMV AD-169 strain): completely devoid of activity
activity against VZV (in words) [1]: completely devoid of activity

Nc1ccn(C[C@@H](CO)OCP(=O)(O)O)c(=O)n1 [cidofovir]
CC50 (in vitro): 150 ± 29.1 µM

CO[C@]1(COP(=O)(N[C@@H](C)C(=O)OCc2ccccc2)Oc2ccccc2)O[C@@H](n2ccc(N)nc2=O)C(F)(F)[C@@H]1O (some centres unmarked) [2a]
antiviral activity against SARS-CoV-2 (in words) [2]: devoid of antiviral activity
cytotoxicity in Vero cells (in words) (Vero cells): devoid of antiviral activity and cytotoxicity

Nc1nc(O)c2ncn(COC(CO)CO)c2n1 [ganciclovir]
CC50 (in vitro): 231 ± 49.2 µM
